Earlier results as cited in the CATMoS acute toxicity set (Mansouri et al. 2021).
Several values for one entry are separate records, joined by “and”; a condition that tells them apart may be missing. Equal entries are not always repeated.

Experiment: rat acute oral toxicity
Conditions: in vivo

Structure (SMILES)	LD50
CCSCc1ccccc1OC(=O)NC	200 mg/kg
N#Cc1cc(Cl)cc2[nH]c(C(F)(F)F)nc12	4.79 mg/kg
CCCN(CCC)c1c([N+](=O)[O-])cc(C)cc1[N+](=O)[O-]	3600 mg/kg
NNc1nncc2ccccc12	90 mg/kg
CC[C@@H]1C(=O)OC[C@@H]1Cc1cncn1C	911 mg/kg and 402 mg/kg
COP(=S)(OC)SCSc1cc(Cl)ccc1Cl	220 mg/kg
CCC(=O)CC	2140 mg/kg
CNS(=O)(=O)OCC(=O)N1CCCCCC1	2040 mg/kg
CCCCCNCCCCC	270 mg/kg
O=C1C(Cl)C2(Cl)C3C(Cl)OC(Cl)C3C1(Cl)C2(Cl)Cl (stereo not given)	7 mg/kg
CCS(=O)(=O)Cl	360 mg/kg
CCCCCCCC(C)=O	3200 mg/kg
O=C(CCCN1CCC(O)CC1)c1ccc(F)cc1	2400 mg/kg
CN(C(O)=NC(C)(C)c1ccccc1)c1ccccc1	6130 mg/kg
CCOC(=O)c1ccccc1	2100 mg/kg
CN1CCN(CC(=O)N/N=C/c2ccc([N+](=O)[O-])o2)CC1	990 mg/kg and 960 mg/kg and 833 mg/kg
O=C(c1ccccc1)c1cccc(NS(=O)(=O)C(F)F)c1	750 mg/kg and 450 mg/kg
C=C(C)CCl	848 mg/kg
CCSCC	3420 mg/kg
O=C(O)C(c1ccc(Cl)cc1)c1ccc(Cl)cc1	600 mg/kg and 740 mg/kg
CC(=O)[C@H]1CC[C@H]2[C@@H]3CC[C@H]4C[C@H](O)CC[C@]4(C)[C@H]3C(=O)C[C@]12C	297 mg/kg
CN(C)N=Nc1ccccc1	310 mg/kg
NNCCc1ccccc1	210 mg/kg
COP(=S)(OC)Oc1cnc2ccccc2n1	900 mg/kg
N#Cc1nn(-c2c(Cl)cc(C(F)(F)F)cc2Cl)c(N)c1S(=O)(=O)C(F)(F)F	184 mg/kg

Structure (SMILES)	LD50
CN(CCCO)CCC(c1ccccc1)c1ccccc1	1400 mg/kg
Nc1cccc(C(O)CNC2CC2)c1 (stereo not given)	3250 mg/kg
CCC1COC(Cn2cncn2)(c2ccc(Cl)cc2Cl)O1 (stereo not given)	1340 mg/kg
CCCC(C)(C)C(=O)Nc1ccc(Cl)cc1	2600 mg/kg
C=CC1OCC(C)O1 (stereo not given)	890 mg/kg
FC(F)(F)c1nc2c(Cl)c(Cl)c(Cl)c(Cl)c2[nH]1	0.245 mg/kg
COc1ccc(CN2CCNCC2)c(OC)c1OC	1700 mg/kg
CN(C)C(=O)c1nc(CNC(=O)CN)n(-c2ccc(Cl)cc2C(=O)c2ccccc2Cl)n1	680 mg/kg
Cc1cc(C)c(C2=C(OC(=O)C(C)(C)C)c3ccccc3C2=O)c(C)c1	8000 mg/kg
O=c1[nH]c(=O)c2ccccc2o1	750 mg/kg
CN1CCc2ccccc21	1250 mg/kg
CC1(C)S[C@@H]2[C@H](NC(=O)C(C(=O)Oc3ccc4c(c3)CCC4)c3ccccc3)C(=O)N2[C@H]1C(=O)O (stereo not given in full)	4450 mg/kg
Cc1cc(N=Nc2ccc(S(=O)(=O)O)cc2)c(N)c(N=Nc2ccc(-c3ccc(N=Nc4cc(C)c(O)c(C(=O)O)c4)cc3)cc2)c1N	9960 mg/kg
N[C@@H](CCC(=O)O)C(=O)O	14700 mg/kg
O=C1C=CC(=O)N1c1cccc(N2C(=O)C=CC2=O)c1	1370 mg/kg
C=CC1OCC2(CO1)COC(C=C)OC2 (stereo not given)	3250 mg/kg
N#CCCNC(=O)CCl	410 mg/kg
S=c1[nH]c2ccccc2[nH]1	300 mg/kg
CC(N)C(OCCN(C(C)C)C(C)C)C(=O)c1ccccc1 (stereo not given)	238 mg/kg
COC(=O)c1ccccc1O	1700 mg/kg
CN1CCC(=C2c3ccccc3Oc3ccc(Cl)cc32)CC1	319 mg/kg
CP(=O)(Oc1ccc([N+](=O)[O-])cc1)c1ccccc1 (stereo not given)	12.5 mg/kg
Clc1ccc(CSC(Cn2ccnc2)c2ccc(Cl)cc2Cl)cc1 (stereo not given)	1740 mg/kg
CN1CCC2(C)c3cc(OC(=O)NCCCCCCCCN4CCOCC4)ccc3N(C)C12 (stereo not given)	23 mg/kg
Cc1ccc(CCOC(=O)c2cccnc2)cc1	3500 mg/kg

Structure (SMILES)	LD50
CC(C)(C)CCCCC(=O)O	2070 mg/kg
CCCN(CCC)C(=O)C(CCC(=O)OCCCOC(=O)Cc1c(C)n(C(=O)c2ccc(Cl)cc2)c2ccc(OC)cc12)NC(=O)c1ccccc1 (stereo not given)	605 mg/kg
CCOP(=S)(OCC)SCn1nc(CC)ccc1=O	18.8 mg/kg
Cc1ccc(C)c(N)c1	1300 mg/kg
CS(=O)(=O)OCCN(CCOS(C)(=O)=O)S(C)(=O)=O	300 mg/kg
Cc1cccc(N2CCN(CCC(O)c3ccc4c(c3)CCC(=O)N4)CC2)c1C (stereo not given)	500 mg/kg
C[C@H](N)[C@H](O)c1cccc(O)c1	240 mg/kg
CCCCC(CC)COC(=O)c1ccccc1C(=O)O (stereo not given)	1340 mg/kg
CCOC(=O)c1c(C)cc2c(CO)n[nH]c(=O)c2c1C	1750 mg/kg
ClC(Cl)Cc1ccccc1	5500 mg/kg
C=COP(=O)(OCC)OC(CCl)c1cc(Cl)c(Cl)cc1Cl (stereo not given)	1100 mg/kg
CN1CCN(CC(=O)NN=Cc2ccc([N+](=O)[O-])o2)CC1	1350 mg/kg
NC(=O)c1ccc(Cl)c(N)c1	900 mg/kg
O=C(C=Cc1ccccc1)NO	2140 mg/kg
CCOC(=O)CN(C(=O)CCl)c1c(CC)cccc1CC	2300 mg/kg
CN(C)CC(=O)N1Cc2ccccc2CC2CCCCC21 (stereo not given)	1400 mg/kg
CC(=NOC(=O)N(C)SSN(C)C(=O)ON=C(C)SCCC#N)SCCC#N	80 mg/kg
CCO[Si](CS)(OCC)OCC	2550 mg/kg
CCOP(=S)(OCC)Oc1cnc2ccccc2n1	26 mg/kg
CC(=O)Nc1ccc(OCC(O)CNC(C)C)cc1 (stereo not given)	3460 mg/kg
O=C1NC(CCCl)Oc2ccccc21 (stereo not given)	10000 mg/kg
O=C(CCc1ccccc1)OC1=C(OC(=O)CCc2ccccc2)C(=O)OC1=O	10000 mg/kg
CCCCC(CC)COCCC#N (stereo not given)	4920 mg/kg
CSCc1cnccn1	2150 mg/kg
CCN1CCCc2ccccc21	1780 mg/kg

Structure (SMILES)	LD50
N#CC(Cl)=C(Cl)Cl	62.5 mg/kg
CCCCN(C=O)CCCC	620 mg/kg
CCOC(=O)C1(c2ccccc2)CCN(CCOCC2CCCO2)CC1 (stereo not given)	135 mg/kg
CCCCOC(=O)/C=C/C(=O)OCCCC	8530 mg/kg
CCCCOCCOCCOC(=O)CCCCC(=O)OCCOCCOCCCC	6000 mg/kg
CCC(CC)COCCC(=O)O	3730 mg/kg
CN(C(=O)c1cc(C(F)(F)F)cc(C(F)(F)F)c1)c1nc(C(F)(F)F)c(Cl)s1	501 mg/kg
Cc1nc(N)nc(N)c1-c1ccc(Br)cc1	250 mg/kg
CCOP(=S)(OCC)ON1C(=O)c2cccc3cccc(c23)C1=O	500 mg/kg
CCCOc1cccc(C)c1N(COCC)C(=O)CCl	2600 mg/kg
OCCOCCN1CCN(C(c2ccccc2)c2ccc(Cl)cc2)CC1 (stereo not given)	690 mg/kg and 950 mg/kg and 840 mg/kg
CCN(CC)NNCCCO	3730 mg/kg
CC(=O)Oc1ccccc1C=CC(=O)O	3150 mg/kg
FC(F)(F)c1cccc(-n2nc(OCCCN3CCCCCC3)c3cccnc32)c1	780 mg/kg
Clc1ccc(SCOC(Cn2ccnc2)c2ccc(Cl)cc2Cl)cc1 (stereo not given)	3850 mg/kg
CCCCOC(CBr)c1ccc(C2CCCC2)cc1 (stereo not given)	250 mg/kg
CC[C@@H](CO)NC(=O)[C@@H]1C=C2c3cccc4[nH]cc(c34)C[C@H]2N(C)C1	93 mg/kg
CCCC(=O)c1ccc2c(c1)N(CCCN(C)C)c1ccccc1S2	300 mg/kg
Cc1ccc(O)c([N+](=O)[O-])c1	3360 mg/kg
Cc1c(Cl)cc2[nH]c(C(F)(F)F)nc2c1[N+](=O)[O-]	31.4 mg/kg
CN(C)C(=O)n1c(Br)nc(Br)c1Br	50 mg/kg
CN(C)c1ccc(N)c2ccccc12	400 mg/kg
CCBr	1350 mg/kg
CON(C)C(=O)/C=C(\C)OP(=O)(OC)OC	2 mg/kg
COc1ccccc1NC(=O)CC(=O)c1ccccc1	1600 mg/kg

Structure (SMILES)	LD50
Nc1c(CC(=O)O)cccc1C(=O)c1ccccc1	311 mg/kg
CN1CCN(C(=O)N/N=C/c2ccc([N+](=O)[O-])o2)CC1	750 mg/kg
O=S(=O)(O)c1c(O)ccc2ccccc12	3170 mg/kg
C=COC(=O)c1ccccc1	3250 mg/kg
CN(C)c1ccc(N=Nc2cccc(C(=O)O)c2)cc1	3760 mg/kg
CCCOc1ccc(C=CC(=S)OCC)cc1OC	1010 mg/kg
C1CCC(C(CC2CCCCN2)C2CCCCC2)CC1 (stereo not given)	2150 mg/kg
CCOC(=S)c1ccc(Cl)cc1	995 mg/kg
Cc1ccc(S(=O)(=O)N=C=O)cc1	2230 mg/kg
CC1CCC=C2N(C)C=C(C(=N)O)C(=O)N21 (stereo not given)	750 mg/kg
COc1cc2c(cc1OC)C1Cc3ccc(OC)c(OC)c3CN1CC2 (stereo not given)	580 mg/kg
OC(CCl)COCCCCCOCC(O)CCl (stereo not given)	2250 mg/kg
CC(C)(C)c1ccc(C(=O)O)cc1	473 mg/kg
CCCCCCCCCCCCCCCC(=O)OC/C=C(C)/C=C/C=C(C)/C=C/C1=C(C)CCCC1(C)C	7910 mg/kg
CN(C)c1ccc(-c2nc(=O)n(C)nc2-c2ccc(N(C)C)cc2)cc1	3000 mg/kg
c1ccc2c(c1)ncn2P(n1cnc2ccccc21)n1cnc2ccccc21	2900 mg/kg
OCC(O)CCl (stereo not given)	26 mg/kg
Cc1ccc(NC2=NCCN2)c(Cl)c1	420 mg/kg
Cc1cc(C)c(N)cc1C	1250 mg/kg and 1580 mg/kg
COP(=S)(OC)SC1CSC=CO1 (stereo not given)	100 mg/kg
COc1ccc([N+](=O)[O-])cc1CNCCO	30 mg/kg
CCNC(=O)/C=C/c1cccc(Br)c1	4440 mg/kg
CN1C(C(=O)Nc2ccccn2)C(=O)c2sc(Cl)cc2S1(=O)=O (stereo not given)	5.73 mg/kg
NC(CCC(=O)O)C(=O)O (racemic)	10000 mg/kg
COC(=O)C1=C(C)NC(C)=C(C(=O)OCC(C)C)C1c1ccccc1[N+](=O)[O-] (stereo not given)	1260 mg/kg

Structure (SMILES)	LD50
CC(C)(C)c1cc(CCC(=O)OCCSCCOC(=O)CCc2cc(C(C)(C)C)c(O)c(C(C)(C)C)c2)cc(C(C)(C)C)c1O	6300 mg/kg
Clc1ccc(C(Cn2ccnc2)OCc2c(Cl)cccc2Cl)c(Cl)c1 (stereo not given)	5600 mg/kg
CCCCCN(N=O)C(N)=O	560 mg/kg
CC1(C)CO1	3890 mg/kg
CON=C(Cc1cccnc1)c1ccc(Cl)cc1Cl	1700 mg/kg
C#CCOc1cccc(OC(=O)NC)c1	150 mg/kg
O=P(OCCCl)(OCCCl)OCC(CO)(CO)COP(=O)(OCCCl)OCCCl	4920 mg/kg
CCCN(CCC)CCc1cccc2c1CC(=O)N2	396 mg/kg and 862 mg/kg
NNC(=O)CSc1cc(Oc2ccc(Cl)cc2)ncn1	800 mg/kg
CCSc1nc(=O)n(CC(C)(C)C)c(=O)n1N	3500 mg/kg
O=C(OOC(=O)c1ccccc1)c1ccccc1	7710 mg/kg
O=C(O)Cc1ccccc1Nc1c(Cl)cc(Cl)c2ccccc12	56.2 mg/kg
CCC(C)c1cc(OC(=O)NC)ccc1C (stereo not given)	35 mg/kg
O=C(OCCOC(=O)C(Cl)(Cl)Cl)C(Cl)(Cl)Cl	7000 mg/kg
CC(=O)OCCN(CCC#N)c1ccccc1	2070 mg/kg
CCC(Br)(CC)C(=O)OCC(Br)(Br)Br	2500 mg/kg
C=CCC(CC=C)C(=O)O	570 mg/kg
CCOP(=S)(OCC)SCCC(F)=C(F)F	681 mg/kg
O=C1CCC(c2ccc(-n3ccnc3)cc2)=NN1	125 mg/kg
Cc1ccc(N)c(S(=O)(=O)O)c1	11700 mg/kg
